# Measured values reported in article doi:10.1101/2025.05.21.655333v1, “Role of glutamate 292 and lysine 331 in catalysis for the flavoenzyme (S)-6-hydroxynicotine oxidase from Shinella sp. HZN7” (biorxiv, 2025).
# Molecular target: T1, NctB (Shinella sp. HZN7, UniProt A0A075BSX9)
# T1 construct: synthetic gene in pET29b (NdeI/XhoI), C-terminal His tag, expressed in E. coli BL21(DE3); FAD-containing flavoenzyme
# Assay: absorbance spectra before and after SDS/heat release of FAD
# Assay type: binding
# Conditions: pH 7.5; prosthetic group co-purified with the enzyme
# T1 sequence (A0A075BSX9 whole entry): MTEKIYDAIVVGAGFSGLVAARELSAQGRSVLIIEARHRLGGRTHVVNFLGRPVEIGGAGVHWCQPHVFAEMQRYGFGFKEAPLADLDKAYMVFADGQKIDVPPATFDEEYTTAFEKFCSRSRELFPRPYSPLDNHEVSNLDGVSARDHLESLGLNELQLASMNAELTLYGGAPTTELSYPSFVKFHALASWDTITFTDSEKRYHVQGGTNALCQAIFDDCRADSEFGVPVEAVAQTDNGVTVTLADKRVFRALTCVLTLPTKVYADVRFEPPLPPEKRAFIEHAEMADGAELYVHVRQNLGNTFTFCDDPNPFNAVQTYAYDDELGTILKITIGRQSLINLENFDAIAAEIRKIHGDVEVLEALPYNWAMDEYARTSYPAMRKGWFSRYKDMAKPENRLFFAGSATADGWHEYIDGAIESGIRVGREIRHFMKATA
structure (smiles),measurement,value
Cc1cc2nc3c(=O)[nH]c(=O)nc-3n(C[C@H](O)[C@H](O)[C@H](O)COP(=O)(O)OP(=O)(O)OC[C@H]3O[C@@H](n4cnc5c(N)ncnc54)[C@H](O)[C@@H]3O)c2cc1C [flavin adenine dinucleotide],absorbance spectra before and after SDS/heat release of FAD,The extinction coefficient of FAD bound to NctB was then calculated
